{"source": "patent US20250361214A1", "about": "“TRIAZINE LIPIDS, LIPID SYNTHESIS, AND METHODS FOR INHIBITING CANONICAL NFKB TRANSCRIPTIONAL ACTIVITY” (University of Kentucky Research Foundation, priority 2022, published 2025)", "key": {"[1]": {"tested_on": "C57BL/6J mice", "test": "In vivo toxicity of cationic lipid nanoparticles (ALT, IL-6, SCr, mortality)"}, "[2]": {"tested_on": "canonical NFKB", "test": "THP-1-Blue NFKB reporter (SEAP) assay", "format": "cell-based, human"}, "[3]": {"test": "Nanoparticle pKa via TNS fluorescence", "format": "physicochemical", "settings": "liposomes of the cationic lipid in buffer, probe 2-(p-toluidino)-6-napthalene sulfonic acid (TNS), 1 µM final, pH 2.5 to 12, read-out: pKa", "description": "Determination of Nanoparticle pKa via TNS Fluorescence. […] The solutions were mixed by pipetting and incubated at room temperature for 10 minutes, before being analysed for fluorescence intensity using a 321 nm excitation and 445 nm emission wavelengths."}, "[4]": {"test": "Size and charge determination of nanoparticles (Zetasizer Nano ZS), Example 1", "format": "physicochemical", "source_text": "Size and Charge Determination."}, "[5]": {"settings": "20 mM lipid, i.p., versus baseline"}}, "note": "Entries after “also recorded” stand apart in the source; their conditions may differ."}
{"smiles": "CCCCCCCCCCCCN(CCCCCCCCCCCC)c1nc(NCCCN)nc(NCCCN)n1", "note": "[Lipid 3]", "values": [{"measurement": "interleukin 6 (IL-6)", "setting": "[1]; [5]", "result": "trended upward"}, {"measurement": "serum alanine aminotransferase (ALT)", "setting": "[1]; [5]", "result": "trended upward"}, {"measurement": "in vivo toxicity (overall)", "setting": "[1]; 100 μL cationic lipid nanoparticles i.p., listed as TZ3", "result": "comparable toxicity to DOTAP; also recorded: does not induce significant in vivo toxicity"}, {"measurement": "IC50", "setting": "[2]; Homo sapiens, THP-1-Blue cells stimulated with TNFα, 24 h lipid treatment, read-out: IC50, canonical NFKB inhibition", "result": 4, "unit": "µM"}, {"measurement": "IC80", "setting": "[2]; Homo sapiens, canonical NFKB inhibition", "result": 10, "unit": "µM"}, {"measurement": "canonical NFKB inhibition", "setting": "[2]; THP-1-Blue cells stimulated with TNFα, listed as TZ3", "result": "dose dependent, but not affected by duration of exposure; also recorded: dose dependent inhibition of the canonical NFKB pathway"}, {"measurement": "pKa", "setting": "[3]", "result": 7.37}, {"measurement": "PDI", "setting": "[4]; nanoparticles of pure lipid (Table 1)", "result": "0.41 ± 0.02"}, {"measurement": "Size", "setting": "[4]; nanoparticles of pure lipid, 1 mM, 25° C. (Table 1)", "result": "130 ± 2", "unit": "nm"}, {"measurement": "Charge", "setting": "[4]; zeta potential, nanoparticles of pure lipid (Table 1)", "result": "52 ± 3", "unit": "mV"}]}
